# According to patent publication US20250281672A1, “IDENTIFICATION OF PRO- AND ANTI-INFLAMMATORY LIPIDS RELATING TO IMMUNE RESPONSE TO MEDICAL IMPLANTS” (William Marsh Rice University, priority 2021, published 2025):
# Columns and labels:
# [1] = system: gonadal fat pads of C57BL/6 adult male mice, a pro-fibrotic mouse model; test: 28-day implantation of functionalized PDMS disks on gonadal fat pads (IP space); gross fibrosis and histology; type: in vivo; conditions: 28 days
# Experimental: PDMS disk/pillar preparation & functionalization. PDMS implants were made with SYLGARD™ 184 silicone elastomer by mixing the base and curing agent in a ratio of 10:1 and letting sit 24 hours at room temperature in either sheets or pillar molds. The PDMS sheets were punched with 4 mm biopsy punches to make disks, or the pillar were removed from their molds, and plasma cleaned under general atmospheric air on each side for 1 minute at high Rf, 700-800 torr. Samples were then functionalized by one of two methods: Method 1) for the methacryloyl modified Z2-Y12 and Z2-Y12 Analog, the PDMS disks were incubating in a solution of DMSO:ACN (Sigma) (60:40) overnight under nitrogen gas flow. For the methacryloyl modified Z1-Y15 (0.2M), methacryloyl Z1-Y15 was added to DMSO (0.3 w/v %) and heated to 80° C. Separately Milli-Q H2O was heated to 80° C. and added to the reaction dropwise for a final mixture of 1:4 DMSO:Milli-Q H2O. The mixture was left stirring under reduced heat 40-50° C. under high stirring conditions ([…]). PDMS sheets were added to this mixture and allowed to stir overnight under Nitrogen gas. Disks were submerged in 1×PBS and left to soak for 10 minutes. Samples were then washed 3× with 1×PBS after overnight functionalization. […] Functionalized disks were maintained at −80° C. until they were ready for implantation. […]
# brain of mice = test: 2-week PDMS pillar implantation in mouse brain; histology and immunohistochemistry; type: in vivo; conditions: PDMS pillars, 2 weeks
# Experimental: Mouse Brain Implantation. C57BL/6J mice were allowed to acclimate for greater than one week prior to surgical manipulation. After the acclimation period, 24 hours prior to surgery, the mice were premedicated with 5 mg/kg meloxicam SC for analgesia. 30 minutes prior to surgery, the mice were given 30 mg/kg trimethoprim-sulfamethoxazole PO for antimicrobial prophylaxis. The mice were then anesthetized with 3% isoflurane with 1 L/min O2 in an induction chamber and then transferred to a nose cone with 1-3% inhaled isoflurane with 0.5 L/min O2 for maintenance anesthesia. Depth of anesthesia was monitored testing for no response to toe pinch throughout surgery. Immediately following induction, the mouse was placed on a warming pad and maintained on the warming pad throughout surgery. The fur on the mouse head was trimmed with an electric razor and topical anesthetic with 2.5% lidocaine/prilocaine cream was applied for several minutes. The mice were then given 5 mg/kg meloxicam SC and 0.1 mg/kg buprenorphine SC for analgesia. The trimmed mouse scalp was then scrubbed with 7.5% povidone-iodine solution. Sterile neoprene surgical gloves (Medichoice) and sterile autoclaved instruments were used to maintain sterile technique throughout surgery. […]
smiles,measurement,setting,value
NCCOCCOCCOCCn1cc(CN2CCS(=O)(=O)CC2)nn1 [Z1],adherent peripheral tissue on disks (FBR and fibrosis),"[1]; PDMS disks, gonadal fat pads",virtually no adherent peripheral tissue was found
same,interfacial fibrotic layer on the implant surface (histology),[1]; tissue around PDMS implants,prevented the development of an interfacial fibrotic layer
same,accumulation/migration of immune cells at the implant site (immunohistochemistry),brain of mice,not observed
same,fibrotic strands of cells at the implant site (histology),brain of mice,absent
